# Experimental data as given in patent US10183014B2, “Ocular formulations for drug-delivery and protection of the anterior segment of the eye” (PanOptica, Inc., priority 2014, dated 2019).
# Read-outs that look alike come from different tables or passages of the source.
# Legend:
# AURKB (Aurora B) = AURKB (Aurora B) (Homo sapiens, UniProt Q96GD4); experiment: In vitro inhibition of tyrosine kinases; type: biochemical; conditions: read-out: Mean % Inhibition at 1 μM Compound-I; 1 μM (568.9 ng/mL)
# FGFR-2 = FGFR-2 (Homo sapiens, UniProt P21802); experiment: In vitro inhibition of tyrosine kinases; type: biochemical
# EPHB-4 = EPHB-4 (Homo sapiens, UniProt P54760); experiment: In vitro inhibition of tyrosine kinases; type: biochemical; conditions: read-out: Mean % Inhibition at 1 μM Compound-I; 1 μM (568.9 ng/mL)
# ABL1 Y253F = ABL1 Y253F (Homo sapiens, UniProt P00519, Y253F); experiment: In vitro inhibition of tyrosine kinases; type: biochemical; conditions: read-out: Mean % Inhibition at 1 μM Compound-I; 1 μM (568.9 ng/mL)
# FGR = FGR (Homo sapiens, UniProt P09769); experiment: In vitro inhibition of tyrosine kinases; type: biochemical; conditions: read-out: Mean % Inhibition at 1 μM Compound-I; 1 μM (568.9 ng/mL)
# MAP4K5 (KHS1) = MAP4K5 (KHS1) (Homo sapiens, UniProt Q9Y4K4); experiment: In vitro inhibition of tyrosine kinases; type: biochemical; conditions: read-out: Mean % Inhibition at 1 μM Compound-I; 1 μM (568.9 ng/mL)
# SRC N1 = SRC N1 (Homo sapiens, UniProt P12931); experiment: In vitro inhibition of tyrosine kinases; type: biochemical; conditions: read-out: Mean % Inhibition at 1 μM Compound-I; 1 μM (568.9 ng/mL)
# [1] = 1- to 5-day PK with topical ocular Compound-I formulations (Example 5); type: in vivo, Dutch Belted rabbits; conditions: for concentration at 0.5 h / concentration at 8 h / concentration at 24 h / concentration at 4 h / concentration at 2 h / concentration at 1 h: Dutch Belted, rabbit, topical
# Experimental: On day 1, Groups 1, 2, 4-6, 8, 10, 11, 13, 15, and 17 received one dose (q.d.) for either one (1) or four (4) days.
# Peripheral retina and peripheral choroid samples were assayed only for Groups 1-8, 12, 14, and 16 per study protocol.
# [2] = Groups 1, 5: one dose day 1, 0.5 hr post-dose
# [3] = Groups 1, 5: one dose day 1, 24 hr post-dose
# FGFR-2, sequence (P21802 22-821, species assumed): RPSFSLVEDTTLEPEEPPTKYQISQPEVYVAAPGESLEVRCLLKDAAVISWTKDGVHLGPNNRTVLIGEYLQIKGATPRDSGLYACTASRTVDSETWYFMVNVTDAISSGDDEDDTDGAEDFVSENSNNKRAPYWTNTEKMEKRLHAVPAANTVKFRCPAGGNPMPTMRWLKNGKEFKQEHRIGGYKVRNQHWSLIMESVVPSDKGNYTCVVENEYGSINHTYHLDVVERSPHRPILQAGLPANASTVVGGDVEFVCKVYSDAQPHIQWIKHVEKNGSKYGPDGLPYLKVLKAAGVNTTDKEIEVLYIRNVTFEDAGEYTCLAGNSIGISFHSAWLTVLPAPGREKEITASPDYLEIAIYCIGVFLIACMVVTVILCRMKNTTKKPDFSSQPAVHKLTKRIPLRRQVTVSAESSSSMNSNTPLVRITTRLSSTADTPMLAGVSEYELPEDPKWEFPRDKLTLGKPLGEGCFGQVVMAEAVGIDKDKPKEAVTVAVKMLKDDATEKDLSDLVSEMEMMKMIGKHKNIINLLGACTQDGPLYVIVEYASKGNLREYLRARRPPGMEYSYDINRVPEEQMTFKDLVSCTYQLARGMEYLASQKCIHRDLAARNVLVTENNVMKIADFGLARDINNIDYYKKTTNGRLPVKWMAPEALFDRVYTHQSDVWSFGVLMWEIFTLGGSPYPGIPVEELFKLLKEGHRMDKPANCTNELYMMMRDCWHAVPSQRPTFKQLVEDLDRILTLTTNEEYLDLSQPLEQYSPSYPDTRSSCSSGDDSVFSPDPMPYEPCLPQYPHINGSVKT
# MAP4K5 (KHS1), sequence (Q9Y4K4 whole entry, species assumed): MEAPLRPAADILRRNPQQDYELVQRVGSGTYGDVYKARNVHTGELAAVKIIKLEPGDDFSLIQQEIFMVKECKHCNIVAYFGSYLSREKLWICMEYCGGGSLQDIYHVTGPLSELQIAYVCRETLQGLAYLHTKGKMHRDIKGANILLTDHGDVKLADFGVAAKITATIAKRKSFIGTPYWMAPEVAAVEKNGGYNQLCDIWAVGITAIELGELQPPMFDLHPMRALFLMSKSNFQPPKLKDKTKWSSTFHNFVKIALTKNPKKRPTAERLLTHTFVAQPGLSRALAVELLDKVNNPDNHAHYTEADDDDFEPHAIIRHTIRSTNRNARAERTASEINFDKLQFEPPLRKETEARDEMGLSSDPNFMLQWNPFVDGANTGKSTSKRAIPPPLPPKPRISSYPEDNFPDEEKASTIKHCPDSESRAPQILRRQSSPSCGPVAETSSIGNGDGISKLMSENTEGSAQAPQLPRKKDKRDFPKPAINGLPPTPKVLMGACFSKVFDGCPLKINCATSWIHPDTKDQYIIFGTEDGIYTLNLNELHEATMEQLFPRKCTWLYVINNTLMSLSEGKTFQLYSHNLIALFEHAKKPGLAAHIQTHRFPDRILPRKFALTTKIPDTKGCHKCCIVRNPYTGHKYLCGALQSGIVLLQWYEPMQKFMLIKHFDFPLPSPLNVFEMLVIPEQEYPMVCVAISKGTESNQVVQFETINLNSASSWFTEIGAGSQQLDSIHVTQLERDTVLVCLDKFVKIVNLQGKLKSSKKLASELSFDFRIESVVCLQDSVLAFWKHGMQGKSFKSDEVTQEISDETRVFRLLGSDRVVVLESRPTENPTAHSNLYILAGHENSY
# FGR, sequence (P09769 whole entry, species assumed): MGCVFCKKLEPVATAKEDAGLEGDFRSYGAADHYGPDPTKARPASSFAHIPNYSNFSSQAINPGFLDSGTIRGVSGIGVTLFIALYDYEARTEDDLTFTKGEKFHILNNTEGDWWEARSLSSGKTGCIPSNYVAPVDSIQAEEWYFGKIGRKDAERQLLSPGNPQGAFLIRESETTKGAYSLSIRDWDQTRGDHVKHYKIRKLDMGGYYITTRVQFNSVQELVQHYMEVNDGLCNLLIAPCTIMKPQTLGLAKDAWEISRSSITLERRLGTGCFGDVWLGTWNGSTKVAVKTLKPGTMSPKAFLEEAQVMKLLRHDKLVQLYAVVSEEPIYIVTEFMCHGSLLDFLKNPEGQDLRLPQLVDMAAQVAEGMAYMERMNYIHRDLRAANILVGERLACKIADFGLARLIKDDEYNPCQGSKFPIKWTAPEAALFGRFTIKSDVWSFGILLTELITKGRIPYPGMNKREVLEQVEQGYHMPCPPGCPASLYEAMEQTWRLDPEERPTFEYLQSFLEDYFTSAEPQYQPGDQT
# SRC N1, sequence (P12931 1-542 isoform P12931-2): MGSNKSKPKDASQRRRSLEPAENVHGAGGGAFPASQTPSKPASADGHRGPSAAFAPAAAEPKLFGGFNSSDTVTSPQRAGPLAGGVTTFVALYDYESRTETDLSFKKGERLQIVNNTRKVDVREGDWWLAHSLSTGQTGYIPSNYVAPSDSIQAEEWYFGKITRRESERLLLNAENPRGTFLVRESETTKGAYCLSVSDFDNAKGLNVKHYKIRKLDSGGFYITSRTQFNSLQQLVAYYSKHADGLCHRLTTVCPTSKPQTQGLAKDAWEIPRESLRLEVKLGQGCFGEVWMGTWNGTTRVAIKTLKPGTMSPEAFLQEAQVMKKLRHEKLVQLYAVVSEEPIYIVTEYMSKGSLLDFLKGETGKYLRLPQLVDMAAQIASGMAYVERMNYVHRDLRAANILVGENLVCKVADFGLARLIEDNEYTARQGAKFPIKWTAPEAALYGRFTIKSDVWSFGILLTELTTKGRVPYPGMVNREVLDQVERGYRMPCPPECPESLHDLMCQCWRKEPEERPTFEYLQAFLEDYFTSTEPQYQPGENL
# AURKB (Aurora B), sequence (Q96GD4 whole entry, species assumed): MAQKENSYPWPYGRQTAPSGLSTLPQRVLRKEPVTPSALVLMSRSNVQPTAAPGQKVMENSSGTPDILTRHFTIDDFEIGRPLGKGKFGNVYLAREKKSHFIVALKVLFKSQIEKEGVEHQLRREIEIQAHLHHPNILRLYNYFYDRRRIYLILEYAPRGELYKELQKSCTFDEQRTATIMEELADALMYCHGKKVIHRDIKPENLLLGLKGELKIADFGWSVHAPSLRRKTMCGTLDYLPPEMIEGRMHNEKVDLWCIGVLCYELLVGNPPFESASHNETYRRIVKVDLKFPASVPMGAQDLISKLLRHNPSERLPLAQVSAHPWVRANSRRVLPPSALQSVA
# EPHB-4, sequence (P54760 16-987, species assumed): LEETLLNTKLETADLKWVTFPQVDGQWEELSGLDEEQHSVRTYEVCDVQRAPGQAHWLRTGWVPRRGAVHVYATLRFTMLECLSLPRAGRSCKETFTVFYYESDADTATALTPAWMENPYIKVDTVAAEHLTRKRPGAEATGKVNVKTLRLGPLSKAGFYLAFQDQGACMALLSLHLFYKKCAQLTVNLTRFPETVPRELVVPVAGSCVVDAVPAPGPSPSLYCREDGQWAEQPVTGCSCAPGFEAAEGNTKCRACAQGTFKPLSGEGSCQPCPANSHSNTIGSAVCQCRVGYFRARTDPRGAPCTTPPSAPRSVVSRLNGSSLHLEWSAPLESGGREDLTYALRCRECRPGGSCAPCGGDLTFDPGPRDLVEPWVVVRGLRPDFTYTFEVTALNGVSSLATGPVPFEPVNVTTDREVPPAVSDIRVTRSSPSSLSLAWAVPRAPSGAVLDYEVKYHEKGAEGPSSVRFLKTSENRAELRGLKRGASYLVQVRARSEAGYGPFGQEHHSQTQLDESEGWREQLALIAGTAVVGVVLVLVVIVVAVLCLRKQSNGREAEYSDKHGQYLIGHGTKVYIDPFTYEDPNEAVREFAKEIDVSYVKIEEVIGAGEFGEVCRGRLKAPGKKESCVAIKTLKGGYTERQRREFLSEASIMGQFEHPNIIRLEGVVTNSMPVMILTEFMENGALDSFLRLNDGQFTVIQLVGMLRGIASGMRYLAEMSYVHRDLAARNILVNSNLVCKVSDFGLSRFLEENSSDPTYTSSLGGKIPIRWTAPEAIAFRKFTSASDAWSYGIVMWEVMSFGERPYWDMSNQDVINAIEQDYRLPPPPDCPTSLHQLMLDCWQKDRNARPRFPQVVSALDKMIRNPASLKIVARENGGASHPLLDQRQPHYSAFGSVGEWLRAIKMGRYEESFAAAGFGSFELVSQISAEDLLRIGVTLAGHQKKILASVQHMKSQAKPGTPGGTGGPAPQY
structure (smiles),measurement,setting,value
"Cl.NC(=O)c1c(OCc2c(F)cc(Br)cc2F)nsc1NC(=O)NCCCCN1CCCC1 [Compound-I, 3-[(4-bromo-2,6-difluorophenyl)methoxy]-5-[[[[4-(1-pyrrolidinyl)butyl]amino]carbonyl]amino]-4-isothiazolecarboxamide hydrochloride]",inhibition at 1 µM,AURKB (Aurora B),82%
same,inhibition at 0.3 µM,"FGFR-2; read-out: Mean % Inhibition at 300 nM Compound-I, 300 nM (170.67 ng/mL)",103%
same,inhibition at 1 µM,"FGFR-2; read-out: Mean % Inhibition at 1 μM Compound-I, 1 μM (568.9 ng/mL)",99%
same,inhibition at 1 µM,EPHB-4,80%
same,inhibition at 1 µM,ABL1 Y253F,93%
same,inhibition at 1 µM,FGR,91%
same,inhibition at 1 µM,MAP4K5 (KHS1),94%
same,inhibition at 1 µM,SRC N1,83%
same,concentration at 0.5 h,"[1]; aqueous humor, 30 μL (bilateral), Groups 1, 5: one dose day 1, 0.5 hr post-dose, read-out: Average Concentration Aqueous Humor",1.62 nM
same,concentration at 8 h,"[1]; aqueous humor, 30 μL (bilateral), Groups 1, 5: one dose day 1, 8 hr post-dose, read-out: Average Concentration Aqueous Humor",6.67 nM
same,concentration at 24 h,"[1]; aqueous humor, 30 μL (bilateral), Groups 1, 5: one dose day 1, 24 hr post-dose, read-out: Average Concentration Aqueous Humor",3.03 nM
same,concentration at 4 h,"[1]; aqueous humor, 30 μL bilateral (each eye), Group 5: one dose day 1, 4 hr post-dose, read-out: Average Concentration Aqueous Humor",9.11 nM
same,concentration at 2 h,"[1]; aqueous humor, 30 μL bilateral (each eye), Groups 1, 5: one dose day 1, 2 hr post-dose, read-out: Average Concentration Aqueous Humor",8.62 nM
same,concentration at 1 h,"[1]; aqueous humor, 30 μL bilateral, Groups 1, 5: one dose day 1, 1 hr post-dose, read-out: Average Concentration Aqueous Humor",1.08 nM
same,concentration at 1 h,"[1]; central choroid, 30 μL (bilateral), q.d. groups (2,4,6,8,10,11,13,15,17), 4 days, 1 hr after day 5 morning dose, read-out: Average Concentration Central Choroid",196 nM
same,concentration at 24 h,"[1]; central choroid, 30 μL (bilateral, each eye), q.d. groups (2,6,8,11,13), 4 days, 24 hr after day 5 morning dose, read-out: Average Concentration Central Choroid",319 nM
same,concentration at 24 h,"[1]; central choroid, 30 μL per eye (bilateral), b.i.d. groups (3,7), 4 days, 24 hr after day 5 morning dose, read-out: Average Concentration Central Choroid",283 nM
same,concentration at 24 h,"[1]; central choroid, 30 μL, q.d. groups (2,6,8,11,13), 4 days, 24 hr after day 5 morning dose, read-out: Average Concentration Central Choroid",218 nM
same,concentration at 8 h,"[1]; central retina, 30 μL (bilateral), Groups 1, 5: one dose day 1, 8 hr post-dose, read-out: Average Concentration Central Retina",30.4 nM
same,concentration at 1 h,"[1]; central retina, 30 μL (bilateral), q.d. groups (2,4,6,8,10,11,13,15,17), 4 days, 1 hr after day 5 morning dose, read-out: Average Concentration Central Retina",36.3 nM
same,concentration at 24 h,"[1]; central retina, 30 μL (bilateral), q.d. groups (2,6,8,11,13), 4 days, 24 hr after day 5 morning dose, read-out: Average Concentration Central Retina",24.1 nM
same,concentration at 4 h,"[1]; central retina, 30 μL bilateral (each eye), Group 5: one dose day 1, 4 hr post-dose, read-out: Average Concentration Central Retina",29.9 nM
same,concentration at 2 h,"[1]; central retina, 30 μL bilateral (each eye), Groups 1, 5: one dose day 1, 2 hr post-dose, read-out: Average Concentration Central Retina",35.4 nM
same,concentration at 24 h,"[1]; central retina, 30 μL per eye (bilateral), b.i.d. groups (3,7), 4 days, 24 hr after day 5 morning dose, read-out: Average Concentration Central Retina",29.2 nM
same,concentration at 8 h,"[1]; central retina, 30 μL per eye (bilateral), q.d. groups (2,6), 4 days, 8 hr after day 5 morning dose, read-out: Average Concentration Central Retina",38 nM
same,concentration at 24 h,"[1]; central retina, 30 μL per eye (bilateral), q.d. groups (2,6,8,11,13), 4 days, 24 hr after day 5 morning dose, read-out: Average Concentration Central Retina",24.6 nM
same,concentration at 1 h,"[1]; central retina, 30 μL, b.i.d. groups (3,7,9,12,14,16), 4 days, 1 hr after day 5 morning dose, read-out: Average Concentration Central Retina",40.7 nM
same,concentration at 4 h,"[1]; cornea, 30 μL (bilateral), Group 5: one dose day 1, 4 hr post-dose, read-out: Average Concentration Cornea",14100 nM
same,concentration at 2 h,"[1]; cornea, 30 μL bilateral (each eye), Groups 1, 5: one dose day 1, 2 hr post-dose, read-out: Average Concentration Cornea",28100 nM
same,concentration at 1 h,"[1]; cornea, 30 μL bilateral, Groups 1, 5: one dose day 1, 1 hr post-dose, read-out: Average Concentration Cornea",16900 nM
same,concentration at 4 h,"[1]; peripheral choroid, 30 μL (bilateral), Group 5: one dose day 1, 4 hr post-dose, read-out: Average Concentration Peripheral Choroid",77.5 nM
same,concentration at 8 h,"[1]; peripheral choroid, 30 μL (bilateral), Groups 1, 5: one dose day 1, 8 hr post-dose, read-out: Average Concentration Peripheral Choroid",87.4 nM
same,concentration at 24 h,"[1]; peripheral choroid, 30 μL (bilateral), Groups 1, 5: one dose day 1, 24 hr post-dose, read-out: Average Concentration Peripheral Choroid",88 nM
same,concentration at 1 h,"[1]; peripheral choroid, 30 μL bilateral, Groups 1, 5: one dose day 1, 1 hr post-dose, read-out: Average Concentration Peripheral Choroid",47.3 nM
same,concentration at 24 h,"[1]; peripheral choroid, 30 μL per eye (bilateral), b.i.d. groups (3,7), 4 days, 24 hr after day 5 morning dose, read-out: Average Concentration Peripheral Choroid",892 nM
same,concentration at 1 h,"[1]; peripheral choroid, 30 μL per eye (bilateral), b.i.d. groups (3,7,12,14,16), 4 days, 1 hr after day 5 morning dose, read-out: Average Concentration Peripheral Choroid",765 nM
same,concentration at 8 h,"[1]; peripheral retina, 30 μL (bilateral), Groups 1, 5: one dose day 1, 8 hr post-dose, read-out: Average Concentration Peripheral Retina",33.3 nM
same,concentration at 24 h,"[1]; peripheral retina, 30 μL (bilateral), Groups 1, 5: one dose day 1, 24 hr post-dose, read-out: Average Concentration Peripheral Retina",15.1 nM
same,concentration at 1 h,"[1]; peripheral retina, 30 μL (bilateral), q.d. groups (2,4,6,8), 4 days, 1 hr after day 5 morning dose, read-out: Average Concentration Peripheral Retina",96.1 nM
same,concentration at 4 h,"[1]; peripheral retina, 30 μL bilateral (each eye), Group 5: one dose day 1, 4 hr post-dose, read-out: Average Concentration Peripheral Retina",31.2 nM
same,concentration at 0.5 h,"[1]; peripheral retina, 30 μL bilateral, Groups 1, 5: one dose day 1, 0.5 hr post-dose, read-out: Average Concentration Peripheral Retina",22.7 nM
same,concentration at 8 h,"[1]; peripheral retina, 30 μL per eye (bilateral), q.d. groups (2,6), 4 days, 8 hr after day 5 morning dose, read-out: Average Concentration Peripheral Retina",50.8 nM
same,concentration at 1 h,"[1]; peripheral retina, 30 μL, b.i.d. groups (3,7,12,14,16), 4 days, 1 hr after day 5 morning dose, read-out: Average Concentration Peripheral Retina",108 nM
same,Average Concentration Central Choroid,"[1]; Group 5: one dose day 1, 4 hr post-dose",<LLOQ
same,Average Concentration Central Choroid,[1]; [2],<LLOQ
same,Average Concentration Peripheral Choroid,[1]; [2],<LLOQ
same,Average Concentration Central Choroid,"[1]; Groups 1, 5: one dose day 1, 1 hr post-dose",<LLOQ
same,Average Concentration Central Choroid,"[1]; Groups 1, 5: one dose day 1, 2 hr post-dose",<LLOQ
same,Average Concentration Central Choroid,"[1]; Groups 1, 5: one dose day 1, 8 hr post-dose",<LLOQ
same,Average Concentration Central Choroid,[1]; [3],<LLOQ
same,Average Concentration Central Retina,[1]; [3],<LLOQ
